Measured values as given in patent publication US20100234366A1, “Use of Strobilurins for the Treatment of Disorders of Iron Metabolism” (BSF SE, priority 2006, published 2010).

Assays:
male Wistar rats [1] = test: Treatment of rats with dimoxystrobin (iron concentration in the blood); type: in vivo, rat; conditions: for average iron level in the blood: fourth group: 6-week old rats; for average iron level in the blood / blood level of iron: 500 ppm each day via the food; for blood level of iron: second group: 3-week old rats; for level of iron in the blood: sixth group: 3-week old rats, 250 ppm each day
Description: 10 g of the phenylacetic acid derivative dimoxystrobin were prepared by known methods and purified by conventional methods.
Both 3-week old and 6-week old male Wistar rats (see Example 1) were employed for the subsequent experiments. These rats were divided into 6 equally sized groups of 10 rats. The rats were housed under conventional conditions.
The first group consisted of 3-week old rats. They received only the regular food over the entire period of the experiment.
The second group likewise consisted of 3-week old rats. The animals received 500 ppm (milligrams of test substance per […]) of dimoxystrobin each day. It was supplied via the food.
The third group consisted of 6-week old rats which received no active ingredient via the food.
The fourth group consisted of 6-week old rats which received 500 ppm dimoxystrobin via the food each day.
The fifth group consisted of 3-week old rats which received no active ingredient.
The sixth group consisted of 3-week old rats which received 250 ppm of the test substance dimoxystrobin each day.
The iron concentrations in the blood were determined both after 2 days and after 7 days.

HFE mice = test: Treatment of HFE mice (serum iron level, model of hemochromatosis); type: in vivo, mouse; conditions: for reduction of serum iron concentration compared with control group: 2000 ppm in the food, 7 days
Description: This genetic defect leads to HFE mice having an elevated iron level in the liver, and this can serve as model of hemochromatosis disorder in humans. The HFE mice employed in the experiments were 12 to 23 weeks old (obtained from University College London, Department of Biochemistry and Molecular Biology).
The housing conditions of the mice corresponded to typical standards as have also been described in Example 1. In the experiments, investigations were carried out both with male HFE mice and with female HFE mice. In each case one group of animals received over a period of 7 days 2000 ppm of the phenylacetic acid derivative orysastrobin each day. The product was supplied freely in the food. The comparison group received only the regular food.

male Wistar rats [2] = test: Treatment of rats with an elevated iron level (iron level in the blood); type: in vivo, rat
Description: Two grams of the phenylacetic acid derivative orysastrobin were prepared by known methods and purified by conventional methods.
Six-week old male Wistar rats (Elévage Janvier, France) were employed for the experiments. These rats, which were housed under conventional conditions (20-24° C., 30-70% humidity, 12 hours illumination, standard food) were divided into five groups of equal size.
The first group was treated with no iron compound and no strobilurin derivative.
The second group was treated only with 200 mg of the phenylacetic acid derivative orysastrobin (as suspension by gavage).
The third group received a single intramuscular injection of 50 mg/kg of an iron(III) hydroxide-dextran complex (Myofer® 100), 1 ml of the injection solution comprising 320 mg of the complex (equivalent to 195 mg of Fe(OH)3).
The fourth group received both an injection of 50 mg/kg of the iron complex and, after 6 hours, a dose of 200 mg/kg of the strobilurin derivative by gavage.
The fifth group received both an injection of 50 mg/kg of the iron complex and, after 24 hours, a dose of 200 mg/kg of the strobilurin derivative by gavage.
24 hours before the start of the test, a blood sample was taken from all the rats, in each case at 8 o'clock in the morning of the preceding day, and was analyzed. The iron complex and/or the strobilurin derivative was administered at 8 o'clock in the morning of the day of the experiment. Further blood samples were taken from all the rats at 2 o'clock in the afternoon of the day of the experiment and at 8 o'clock in the morning of the next day, and were analyzed.

Structure (SMILES) | average iron level in the blood (male Wistar rats [1]; after 2 days, control 43.1) [µmol/L] | average iron level in the blood (male Wistar rats [1]; after 7 days, control 44.0) [µmol/L] | finding at the duodenum (male Wistar rats [1]; rats treated with dimoxystrobin, occurred only in the adult animals) | blood level of iron (male Wistar rats [1]; after 2 days, control 92.6) [µmol/L] | blood level of iron (male Wistar rats [1]; after 7 days) [µmol/L] | level of iron in the blood (male Wistar rats [1]; after 2 days, control 96.7) [µmol/L] | level of iron in the blood (male Wistar rats [1]; after 7 days, control 96.1) [µmol/L] | iron level (serum) (HFE mice; female HFE mice, 2000 ppm each day in the food, after one week, control 51.2) [µmol/L] | reduction of serum iron concentration compared with control group (HFE mice; female HFE mice) | serum iron level (HFE mice; male HFE mice, 2000 ppm each day in the food, after one week, control 40.06) [µmol/L] | reduction of serum iron concentration compared with control group (HFE mice; male HFE mice) | iron level in the blood (male Wistar rats [2]; fifth group: 50 mg/kg iron complex i.m. plus 200 mg/kg orysastrobin by gavage, after 24 hours, iron only 147.8) [µmol/L] | iron level in the blood (male Wistar rats [2]; fourth group: 50 mg/kg iron complex i.m. plus 200 mg/kg orysastrobin by gavage, after 6 hours, iron only 153.9) [µmol/L] | iron level in the blood (male Wistar rats [2]; second group: only 200 mg orysastrobin by gavage, no iron, 6 hours after administration, untreated control 47.8) [µmol/L] | iron level in the blood (male Wistar rats [2]; second group: only 200 mg orysastrobin by gavage, no iron, after 24 hours, untreated control 47.8) [µmol/L]
CNC(=O)/C(=N/OC)c1ccccc1COc1cc(C)ccc1C [dimoxystrobin, (E)-2(methoximino)-N-methyl-2-[α-(2,5-xylyloxy)-o-tolyl]acetamide] | 34.2 | 36 | distinct thickening of the duodenum | 35.8 | 33.6 | 56 | 59.7 |  |  |  |  |  |  |  | 
CNC(=O)/C(=N/OC)c1ccccc1CO/N=C(C)/C(=N/OC)C(/C)=N/OC [orysastrobin, (2E)-2(methoximino)-2-[2-[(3E,5E,6E)-5-(methoximino)-4,6-dimethyl-2 , 8-dioxa-3,7-diazanona-3,6-dien-1-yl]phenyl]-N-methylacetamide] |  |  |  |  |  |  |  | 36.66 | about 28% | 30.62 | about 24% | 91.9 | 83.1 | 20.6 | 26.3
